For assay [1], the target named is T1, Tie2 receptor tyrosine kinase (Homo sapiens, UniProt Q02763).
T1 construct: consist of only the intracellular portion C-terminal portion of the respective receptor, within which is found the kinase domain; made in house; host or cells: baculovirus/Sf21 insect cells (cleared lysate used)
The assay is described as follows: In vitro receptor tyrosine kinase inhibition assay (ELISA based, Test (a)). To be noted: recombinant human Tie2 kinase domain lysate, synthetic peptide substrate. In kind it is biochemical. The procedure:
a. In Vitro Receptor Tyrosine Kinase Inhibition Assay
To test for inhibition of Tie2 receptor tyrosine kinase, compounds are evaluated in a non-cell based protein kinase assay by their ability to inhibit the protein kinase enzyme phosphorylation of a tyrosine containing polypeptide substrate in an ELISA based microtitre plate assay. In this particular case, the assay was to determine the IC50, for three different recombinant human tyrosine kinases Tie2, KDR and Flt.
To facilitate production of the tyrosine kinases, recombinant receptor genes were produced using standard molecular biology cloning and mutagenesis techniques. These recombinant proteins fragments encoded within these genes consist of only the intracellular portion C-terminal portion of the respective receptor, within which is found the kinase domain. The recombinant genes encoding the kinase domain containing fragments were cloned and expressed in standard baculovirus/Sf21 system (or alternative equivalent). […]
Constitutive kinase activity of these recombinant proteins was determined by their ability to phosphorylate a synthetic peptide (made up of a random co-polymer of Glutamic Acid, Alanine and Tyrosine in the ratio of 6:3:1). […]
The immobilised phospho-peptide product of the reaction was detected by immunological methods. […] Following extensive washing with PBS-T, HRP activity in each well of the plate was measured colorimetrically using 22′-Azino-di-[3-ethylbenzthiazoline sulfonate (6)] diammonium salt crystals ABTS (Sigma P4922-prepared as per manufactures instructions) as a substrate incubated for 30-45 minutes to allow colour development, before 100 ul of 1M H2SO4 was added to stop the reaction.
Quantification of colour development and thus enzyme activity was achieved by the measurement of absorbance at 405 nm on a Molecular Devices ThermoMax microplate reader. Kinase inhibition for a given compound was expressed as an IC50 value. […] The range of phosphorylation was calculated from the positive (vehicle plus ATP) and negative (vehicle minus ATP) control values.

A further assay has as its target T2, Tie2 receptor (Homo sapiens, UniProt Q02763).
T2 construct: one can use natural cell lines or primary cells which are known to express the receptor of choice; endogenous in cells; host or cells: EA.hy926/B3 cells
The assay is described as follows: Cellular Tie2 autophosphorylation assay (Test (b)). The format is cell-based. To be noted: Ang1 ligand stimulated cellular Tie2 receptor, e.g. EA.hy926/B3 cells; read-out: IC50 Test (b): Inhibition of autophosphorylation of Tie2 receptor tyrosine kinase. The text has this:
b. Cellular Tie2 Autophosphorylation Assay
This assay is based on measuring the ability of compounds to inhibit autophosphorylation of the Tie2 receptor which normally leads to the production of “activated” receptor that in turn initiates the particular signal transduction pathways associated with the receptor function.
Autophosphorylation can be achieved by a number of means. It is known that expression of recombinant kinase domains in baculoviral systems can lead to the production of phosphorylated and activated receptor. It is also reported that over expression of receptors in recombinant cell lines can itself lead to receptor autophosphorylation in the absence of the ligand (Heldin C-H. 1995 Cell : 80, 213-223; Blume-J. P, Hunter T. 2001 Nature: 411, 355-65). Furthermore, there are numerous literature examples in which chimaeric receptors have been constructed. In these cases the natural, external cell surface domain of the receptor has been replaced with that of a domain which is known to be readily dimerised via the addition of the appropriate ligand (e.g. TrkA-Tie2/NGF ligand (Marron, M. B., et al., 2000 Journal of Biological Chemistry: 275:39741-39746) or C-fms-Tie-1/CSF-1 ligand (Kontos, C. D., et al., 2002 Molecular and Cellular Biology: 22, 1704-1713). Thus when the chimaeric receptor expressed in a host cell line and the respective ligand is added, this induces autophosphorylation of the chimeric receptor's kinase domain. This approach has the advantage of often allowing a known (and often easily obtained) ligand to be used instead of having to identify and isolate the natural ligand for each receptor of interest.
Naturally if the ligand is available one can use natural cell lines or primary cells which are known to express the receptor of choice and simply stimulate with ligand to achieve ligand induced phosphorylation. […]

The values that follow come from patent US20080027076A1, “Pyrimidines With Tie2 (Tek) Activity” (ASTRAZENECA AB, priority 2003, published 2008).

SMILES strings stand for the structures.

T1 sequence (Q02763 770-1124 limits assumed): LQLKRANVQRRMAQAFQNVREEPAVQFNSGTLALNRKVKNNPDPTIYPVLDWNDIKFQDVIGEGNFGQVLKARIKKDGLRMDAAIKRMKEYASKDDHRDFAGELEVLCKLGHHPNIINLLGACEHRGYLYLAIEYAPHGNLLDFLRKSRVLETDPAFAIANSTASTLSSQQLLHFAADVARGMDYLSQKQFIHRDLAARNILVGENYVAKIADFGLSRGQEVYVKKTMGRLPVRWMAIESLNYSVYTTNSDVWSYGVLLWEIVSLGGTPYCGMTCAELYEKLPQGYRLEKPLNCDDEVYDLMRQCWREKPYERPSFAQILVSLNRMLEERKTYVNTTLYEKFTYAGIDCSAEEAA
T2 sequence (Q02763 23-1124): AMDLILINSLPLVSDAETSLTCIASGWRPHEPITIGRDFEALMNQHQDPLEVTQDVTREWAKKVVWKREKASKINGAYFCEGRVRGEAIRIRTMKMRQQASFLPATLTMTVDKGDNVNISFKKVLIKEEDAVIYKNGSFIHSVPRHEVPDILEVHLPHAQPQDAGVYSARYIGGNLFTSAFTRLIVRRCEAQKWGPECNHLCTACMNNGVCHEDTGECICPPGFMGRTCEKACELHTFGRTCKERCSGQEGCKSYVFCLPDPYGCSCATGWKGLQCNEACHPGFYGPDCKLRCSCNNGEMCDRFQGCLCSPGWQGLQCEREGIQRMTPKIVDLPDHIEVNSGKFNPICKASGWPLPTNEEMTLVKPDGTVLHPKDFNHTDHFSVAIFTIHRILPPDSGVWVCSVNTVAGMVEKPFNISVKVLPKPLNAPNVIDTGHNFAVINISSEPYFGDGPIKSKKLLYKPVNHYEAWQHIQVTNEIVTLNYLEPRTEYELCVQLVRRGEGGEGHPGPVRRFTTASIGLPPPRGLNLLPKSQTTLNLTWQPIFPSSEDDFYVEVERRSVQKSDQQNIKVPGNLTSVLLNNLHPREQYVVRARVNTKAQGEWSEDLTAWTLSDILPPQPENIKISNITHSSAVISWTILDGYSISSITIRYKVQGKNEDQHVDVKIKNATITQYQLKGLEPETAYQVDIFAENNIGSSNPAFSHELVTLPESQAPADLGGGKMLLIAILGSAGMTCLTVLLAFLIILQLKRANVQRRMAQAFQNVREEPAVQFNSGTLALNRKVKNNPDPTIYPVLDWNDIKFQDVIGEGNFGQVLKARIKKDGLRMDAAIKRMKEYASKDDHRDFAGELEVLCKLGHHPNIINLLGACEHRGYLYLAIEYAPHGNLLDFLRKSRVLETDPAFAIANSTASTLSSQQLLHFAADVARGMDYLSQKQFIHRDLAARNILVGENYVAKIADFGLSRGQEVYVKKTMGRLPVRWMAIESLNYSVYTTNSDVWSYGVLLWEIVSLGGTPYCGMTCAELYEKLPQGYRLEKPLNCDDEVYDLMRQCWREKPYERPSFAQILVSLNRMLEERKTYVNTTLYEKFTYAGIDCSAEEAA

`Cc1cc(NC(=O)Nc2cccc(C#Cc3c(N)ncnc3N)c2)on1` [Example 19, N-{3-[(4,6-diaminopyrimidin-5-yl)ethynyl]phenyl}-N′-(3-methylsoxazol-5-yl)urea]: the results for the IC50 (in assay [1]; at Tie2 receptor) were 2140 nM and 3540 nM, respectively.

Consider `Cc1cc(NC(=O)Nc2ccc(C#Cc3c(N)ncnc3N)cc2)sn1` [Example 12, N-{4-[(4,6-diaminopyrimidin-5-yl)ethynyl]phenyl}-N′-(3-methylisothiazol-5-yl)urea], for which the IC50 in assay [1] is 2850 nM; at Tie2 receptor, 351 nM.

On to `CC(C)(C)c1nnc(NC(=O)Nc2ccc(C#Cc3c(N)ncnc3N)cc2)s1` [Example 11, N-(5-tert-butyl-1,3,4-thiadiazol-2-yl)-N′-{4-[(4,6-diaminopyrimidin-5-yl)ethynyl]phenyl}urea], for which the IC50 stood at 879 nM in assay [1] and 5560 nM at Tie2 receptor.

What is called IC50 is the midpoint of a concentration-inhibition curve.
